Laboratory results: ChEMBL document CHEMBL5226304, “Fused-azepinones: Emerging scaffolds of medicinal importance” (Eur J Med Chem, 2021)
Converted amounts (≈) assume the structure as drawn. Blank lines part the entries; values can stand above or below the molecule they belong to.

Experiments:
Homo sapiens [1] = organism: Homo sapiens; assay: Selectivity ratio of IC50 for Chk1 (unknown origin) to IC50 for (unknown origin)
[2] = molecular target: Cyclin-dependent kinase 5/CDK5 activator 1 (Homo sapiens, UniProt Q00535); assay: Inhibition of CDK5/p25 (unknown origin); format: protein-complex assay
Cyclin-dependent kinase 5/CDK5 activator 1, sequence (Q00535 whole entry): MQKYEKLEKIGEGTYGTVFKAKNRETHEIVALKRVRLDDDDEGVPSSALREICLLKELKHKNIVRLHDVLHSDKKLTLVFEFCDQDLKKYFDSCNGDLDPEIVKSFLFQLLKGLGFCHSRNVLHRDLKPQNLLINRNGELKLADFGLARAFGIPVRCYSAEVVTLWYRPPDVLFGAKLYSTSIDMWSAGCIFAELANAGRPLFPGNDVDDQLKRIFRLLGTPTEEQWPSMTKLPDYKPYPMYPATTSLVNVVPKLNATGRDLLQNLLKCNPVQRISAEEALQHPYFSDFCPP
Cyclin-dependent kinase 5/CDK5 activator 1, sequence (Q15078 whole entry, further chain): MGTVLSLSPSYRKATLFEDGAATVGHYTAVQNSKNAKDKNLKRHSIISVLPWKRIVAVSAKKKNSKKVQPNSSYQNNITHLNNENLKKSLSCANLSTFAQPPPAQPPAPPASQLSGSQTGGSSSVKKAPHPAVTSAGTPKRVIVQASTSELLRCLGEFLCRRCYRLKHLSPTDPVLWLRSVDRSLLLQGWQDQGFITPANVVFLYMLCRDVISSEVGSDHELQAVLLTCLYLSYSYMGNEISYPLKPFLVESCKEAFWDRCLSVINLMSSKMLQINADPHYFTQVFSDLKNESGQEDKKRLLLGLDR

[3] = molecular target: Cyclin-dependent kinase 1/cyclin B (Homo sapiens, UniProt P06493); assay: Inhibition of CDK1/Cyclin B (unknown origin) in presence of gamma32P-ATP by scintillation counter analysis; format: protein-complex assay
[4] = molecular target: Dual specificity tyrosine-phosphorylation-regulated kinase 1A (Homo sapiens, UniProt Q13627)
Description: Inhibition of DYRK1A (unknown origin)

[5] = molecular target: Cyclin-dependent kinase 2/cyclin A (Homo sapiens, UniProt P24941); assay: Inhibition of CDK2/Cyclin A (unknown origin); format: protein-complex assay
CDK9/Cyclin T = CDK9/Cyclin T (Homo sapiens, UniProt P50750); assay: Inhibition of CDK9/Cyclin T (unknown origin); format: protein-complex assay
Casein kinase I = assay: Inhibition of CK1 (unknown origin); format: protein assay, Homo sapiens
[6] = Selectivity index, ratio of IC50 for CDK1/Cycline B (unknown origin) to IC50 for GSK3beta (unknown origin)
[7] = system: Human immunodeficiency virus 1; assay: Antiviral activity against HIV1 assessed as inhibition of LC5-RIC cells infection at 50 uM relative to control; format: functional
LAPC4 = assay: Antiproliferative activity against human LAPC4 cells assessed as inhibition of proliferation measured after 96 hrs by alamerBlue assay; format: functional, cell-based
MOLM-13 = assay: Antiproliferative activity against human MOLM-13 cells assessed as inhibition of proliferation measured after 96 hrs by alamerBlue assay; format: functional, cell-based
L5178Y = assay: Cytotoxicity against mouse L5178Y cells by MTT assay; format: functional, cell-based
[8] = molecular target: Serine/threonine-protein kinase Chk1 (Homo sapiens, UniProt O14757); assay: Inhibition of Chk1 (unknown origin)
MDA-MB-231 = assay: Cytotoxicity against human MDA-MB-231 cells by MTT assay; format: functional, cell-based
MCF7 = assay: Cytotoxicity against human MCF7 cells by MTT assay; format: functional, cell-based
786-0 = assay: Antitumor activity against human 786-0 cells; format: functional
[9] = Inhibition of cGMP-dependent protein kinase (unknown origin); set-up: species or system Homo sapiens
[10] = Inhibition of MAPKK (unknown origin); set-up: species or system Homo sapiens
[11] = molecular target: RAF proto-oncogene serine/threonine-protein kinase (Homo sapiens, UniProt P04049); assay: Inhibition of c-Raf (unknown origin)
RAF proto-oncogene serine/threonine-protein kinase, sequence (P04049 whole entry): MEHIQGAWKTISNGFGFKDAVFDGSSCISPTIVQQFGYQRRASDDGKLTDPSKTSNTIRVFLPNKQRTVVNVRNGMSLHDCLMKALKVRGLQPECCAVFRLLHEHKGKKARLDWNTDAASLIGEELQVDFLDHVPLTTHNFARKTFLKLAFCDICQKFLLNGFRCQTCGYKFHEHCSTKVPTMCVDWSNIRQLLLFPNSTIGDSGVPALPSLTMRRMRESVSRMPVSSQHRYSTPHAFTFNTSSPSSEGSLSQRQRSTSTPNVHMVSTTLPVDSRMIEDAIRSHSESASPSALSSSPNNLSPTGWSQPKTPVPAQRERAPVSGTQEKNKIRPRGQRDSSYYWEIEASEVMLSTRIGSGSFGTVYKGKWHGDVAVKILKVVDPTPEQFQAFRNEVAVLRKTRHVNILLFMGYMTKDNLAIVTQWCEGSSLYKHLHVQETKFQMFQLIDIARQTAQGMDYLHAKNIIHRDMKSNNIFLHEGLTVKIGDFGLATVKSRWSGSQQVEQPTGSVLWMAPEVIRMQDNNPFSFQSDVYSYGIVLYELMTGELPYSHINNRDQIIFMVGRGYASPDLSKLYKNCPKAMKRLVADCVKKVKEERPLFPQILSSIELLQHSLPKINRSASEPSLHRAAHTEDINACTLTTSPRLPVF

[12] = molecular target: Cyclin-dependent kinase 4/cyclin D1 (Homo sapiens, UniProt P11802); assay: Inhibition of CDK4/Cyclin D1 (unknown origin); format: protein-complex assay
Cyclin-dependent kinase 4/cyclin D1, sequence (P11802 whole entry): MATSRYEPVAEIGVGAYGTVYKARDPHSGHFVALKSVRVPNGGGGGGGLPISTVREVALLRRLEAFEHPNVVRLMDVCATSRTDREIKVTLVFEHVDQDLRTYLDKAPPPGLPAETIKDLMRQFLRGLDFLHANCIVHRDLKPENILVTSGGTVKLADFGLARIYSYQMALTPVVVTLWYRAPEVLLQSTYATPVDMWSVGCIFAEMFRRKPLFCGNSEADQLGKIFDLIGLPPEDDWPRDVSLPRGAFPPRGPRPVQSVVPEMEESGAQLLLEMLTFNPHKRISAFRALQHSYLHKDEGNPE
Cyclin-dependent kinase 4/cyclin D1, sequence (P24385 whole entry, further chain): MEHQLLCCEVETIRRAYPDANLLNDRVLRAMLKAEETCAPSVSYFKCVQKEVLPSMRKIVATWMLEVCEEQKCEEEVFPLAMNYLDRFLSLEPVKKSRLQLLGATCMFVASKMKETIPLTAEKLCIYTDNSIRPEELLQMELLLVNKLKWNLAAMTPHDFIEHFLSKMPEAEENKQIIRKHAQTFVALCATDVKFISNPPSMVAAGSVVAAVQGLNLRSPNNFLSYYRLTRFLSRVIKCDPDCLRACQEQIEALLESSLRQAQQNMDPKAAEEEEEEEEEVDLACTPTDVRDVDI

[13] = Inhibition of cAMP-dependent protein kinase (unknown origin); set-up: species or system Homo sapiens
[14] = molecular target: Serine/threonine-protein kinase PLK1 (Homo sapiens) (UniProt P53350); assay: Inhibition of PLK1 (unknown origin) at 10 uM relative to control
Serine/threonine-protein kinase PLK1 (Homo sapiens), sequence (P53350 whole entry): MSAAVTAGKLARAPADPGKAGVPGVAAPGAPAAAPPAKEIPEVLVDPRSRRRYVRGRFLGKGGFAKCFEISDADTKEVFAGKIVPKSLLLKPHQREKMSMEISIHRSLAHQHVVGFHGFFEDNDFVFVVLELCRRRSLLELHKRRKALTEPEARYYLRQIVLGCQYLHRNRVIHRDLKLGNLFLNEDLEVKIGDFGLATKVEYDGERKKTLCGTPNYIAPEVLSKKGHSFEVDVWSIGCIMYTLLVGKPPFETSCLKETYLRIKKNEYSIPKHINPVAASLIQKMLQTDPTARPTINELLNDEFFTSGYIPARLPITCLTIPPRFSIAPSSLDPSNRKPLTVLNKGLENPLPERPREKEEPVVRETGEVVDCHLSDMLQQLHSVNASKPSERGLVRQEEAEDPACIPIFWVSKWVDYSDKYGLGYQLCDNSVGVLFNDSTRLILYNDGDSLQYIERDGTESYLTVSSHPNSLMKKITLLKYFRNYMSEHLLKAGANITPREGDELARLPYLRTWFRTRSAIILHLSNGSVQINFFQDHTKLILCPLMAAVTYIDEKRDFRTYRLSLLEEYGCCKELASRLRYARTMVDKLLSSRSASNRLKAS

[15] = molecular target: MAP/microtubule affinity-regulating kinase 3 (Homo sapiens) (UniProt P27448); assay: Inhibition of MARK3 (unknown origin) at 10 uM relative to control
[16] = molecular target: Aurora kinase B (Homo sapiens) (UniProt Q96GD4); assay: Inhibition of Aurora B (unknown origin) at 10 uM relative to control
[17] = molecular target: Serine/threonine-protein kinase pim-1 (Homo sapiens) (UniProt P11309); assay: Inhibition of PIM1 (unknown origin) at 10 uM relative to control
Serine/threonine-protein kinase pim-1 (Homo sapiens), sequence (P11309 whole entry, looked up): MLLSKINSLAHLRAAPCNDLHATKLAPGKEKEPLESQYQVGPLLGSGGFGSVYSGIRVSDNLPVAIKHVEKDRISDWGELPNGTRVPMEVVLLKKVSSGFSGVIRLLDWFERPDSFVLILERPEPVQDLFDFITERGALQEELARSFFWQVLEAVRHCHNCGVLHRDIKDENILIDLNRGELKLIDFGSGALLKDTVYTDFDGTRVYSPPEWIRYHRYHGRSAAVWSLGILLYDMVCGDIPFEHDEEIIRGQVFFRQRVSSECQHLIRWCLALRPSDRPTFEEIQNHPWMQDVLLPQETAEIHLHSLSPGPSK

[18] = molecular target: Mitogen-activated protein kinase kinase kinase 11 (Homo sapiens) (UniProt Q16584); assay: Inhibition of MLK3 (unknown origin) at 10 uM relative to control
Homo sapiens [19] = organism: Homo sapiens; assay: Inhibition of MPK (unknown origin) at 10 uM relative to control
KB 3-1 = assay: Cytotoxicity against human KB-3-1 cells by MTT assay; format: functional, cell-based
Protein kinase C (PKC) = assay: Inhibition of Protein kinase C (unknown origin); format: protein assay, Homo sapiens
Integrin alpha-V/beta-3 = Integrin alpha-V/beta-3 (Homo sapiens, UniProt P05106+P06756); assay: Antagonist activity against human integrin alphaVbeta3 expressed in CHO-K1 cells measured after 4 hrs by Cell adhesion assay; format: cell-based
Integrin alpha-V/beta-3, sequence (P05106 27-788 limits assumed): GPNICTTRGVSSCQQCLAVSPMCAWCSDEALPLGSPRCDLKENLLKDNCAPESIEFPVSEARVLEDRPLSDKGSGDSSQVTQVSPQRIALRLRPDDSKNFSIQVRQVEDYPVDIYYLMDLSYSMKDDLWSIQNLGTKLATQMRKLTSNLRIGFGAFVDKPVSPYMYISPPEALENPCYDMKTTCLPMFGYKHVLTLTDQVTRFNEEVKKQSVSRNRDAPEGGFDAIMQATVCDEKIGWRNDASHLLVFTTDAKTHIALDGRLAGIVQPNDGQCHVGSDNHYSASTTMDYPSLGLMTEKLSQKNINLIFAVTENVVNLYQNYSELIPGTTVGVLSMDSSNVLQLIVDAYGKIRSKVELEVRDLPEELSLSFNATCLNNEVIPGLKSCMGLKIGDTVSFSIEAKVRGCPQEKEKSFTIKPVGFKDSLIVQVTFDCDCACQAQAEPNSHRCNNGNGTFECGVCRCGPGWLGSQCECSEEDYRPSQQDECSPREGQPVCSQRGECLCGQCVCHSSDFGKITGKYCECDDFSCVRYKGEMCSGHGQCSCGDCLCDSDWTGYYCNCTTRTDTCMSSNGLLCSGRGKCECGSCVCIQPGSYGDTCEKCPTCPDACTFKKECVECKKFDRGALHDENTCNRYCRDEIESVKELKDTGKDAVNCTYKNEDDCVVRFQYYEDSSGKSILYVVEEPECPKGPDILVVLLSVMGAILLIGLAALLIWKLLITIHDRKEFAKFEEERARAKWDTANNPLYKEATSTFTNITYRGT
Integrin alpha-V/beta-3, sequence (P06756 31-889 limits assumed): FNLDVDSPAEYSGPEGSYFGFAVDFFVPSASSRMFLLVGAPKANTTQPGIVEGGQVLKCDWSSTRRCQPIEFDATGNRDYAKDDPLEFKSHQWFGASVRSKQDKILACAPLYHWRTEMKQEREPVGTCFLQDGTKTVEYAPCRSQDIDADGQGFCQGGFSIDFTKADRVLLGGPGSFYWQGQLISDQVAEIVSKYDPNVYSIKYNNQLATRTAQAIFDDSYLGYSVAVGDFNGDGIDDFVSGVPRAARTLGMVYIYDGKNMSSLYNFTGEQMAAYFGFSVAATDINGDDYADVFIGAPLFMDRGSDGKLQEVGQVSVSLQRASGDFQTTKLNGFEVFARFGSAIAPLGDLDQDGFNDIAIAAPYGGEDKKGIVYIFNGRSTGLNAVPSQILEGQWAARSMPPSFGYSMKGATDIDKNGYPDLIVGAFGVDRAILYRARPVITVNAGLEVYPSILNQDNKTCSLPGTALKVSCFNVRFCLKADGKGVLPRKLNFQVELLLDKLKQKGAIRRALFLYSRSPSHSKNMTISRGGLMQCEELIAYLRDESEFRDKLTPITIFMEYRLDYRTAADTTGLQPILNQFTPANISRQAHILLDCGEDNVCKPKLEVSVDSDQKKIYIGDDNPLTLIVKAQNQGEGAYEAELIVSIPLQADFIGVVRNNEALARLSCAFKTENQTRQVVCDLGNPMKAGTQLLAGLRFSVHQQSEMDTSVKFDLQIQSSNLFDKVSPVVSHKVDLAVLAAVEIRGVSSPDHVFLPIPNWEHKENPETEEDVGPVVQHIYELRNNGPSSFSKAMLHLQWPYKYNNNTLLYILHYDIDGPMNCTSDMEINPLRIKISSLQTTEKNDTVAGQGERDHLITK
Integrin alpha-V/beta-3, sequence (P06756 891-1048 limits assumed): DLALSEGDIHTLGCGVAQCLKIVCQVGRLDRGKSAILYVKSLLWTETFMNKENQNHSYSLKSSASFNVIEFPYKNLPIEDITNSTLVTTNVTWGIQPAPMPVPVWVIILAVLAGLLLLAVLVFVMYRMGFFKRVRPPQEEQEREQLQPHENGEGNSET

[20] = molecular target: Mitogen-activated protein kinase kinase kinase 7 (Homo sapiens) (UniProt O43318); assay: Inhibition of MAP3K7 kinase (unknown origin) at 10 uM relative to control
THP-1 [21] = assay: Antiinflammatory activity in human THP-1 cells assessed as inhibition of LPS-stimulated TNFalpha production; format: functional, cell-based
THP-1 [22] = assay: Antiinflammatory activity in human THP-1 cells assessed as inhibition of LPS-stimulated IL2 production; format: functional, cell-based
[23] = molecular target: Glycogen synthase kinase-3 beta (Rattus norvegicus, UniProt P18266); assay: Inhibition of recombinant recombinant rat GSK3beta using GS-1 peptide as substrate in presence of [gamma-32P]ATP measured after 30 mins incubation by scintillation counting analysis
Glycogen synthase kinase-3 beta, sequence (P18266 whole entry): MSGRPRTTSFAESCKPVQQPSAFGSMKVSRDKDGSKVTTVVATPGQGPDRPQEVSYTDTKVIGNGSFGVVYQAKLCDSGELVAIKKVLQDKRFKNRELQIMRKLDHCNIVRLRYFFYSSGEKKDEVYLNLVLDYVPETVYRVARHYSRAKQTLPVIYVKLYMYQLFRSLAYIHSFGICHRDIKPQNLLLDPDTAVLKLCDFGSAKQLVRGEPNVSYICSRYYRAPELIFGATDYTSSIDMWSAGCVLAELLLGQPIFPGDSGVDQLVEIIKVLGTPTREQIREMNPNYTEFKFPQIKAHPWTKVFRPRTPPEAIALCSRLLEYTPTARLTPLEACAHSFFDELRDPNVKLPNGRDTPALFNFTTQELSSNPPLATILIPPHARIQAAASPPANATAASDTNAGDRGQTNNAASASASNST

SMILES: CC(=O)NC1=NC(=O)/C(=C2\CCNC(=O)c3[nH]c(Br)c(Br)c32)N1
- IC50 [2]: 0.533 µM
- IC50 [3]: 1.5 µM

SMILES: NC1=NC(=O)/C(=C2\CCNC(=O)c3[nH]c4ccc(Cl)cc4c32)N1
- IC50 [2]: 0.191 µM
- IC50 [3]: 2.3 µM

SMILES: O=C1Cc2c([nH]c3ccncc23)-c2ccccc2N1
- IC50 [3]: 2.1 µM
- IC50 (Casein kinase I): > 10 µM

SMILES: Nc1ncc(/C=C/CNC(=O)c2cc(Br)c(Br)[nH]2)[nH]1 [OROIDIN]
- inhibition at 50 µM [7]: 50%

SMILES: Nc1ncc2c(n1)CNC(=O)c1[nH]c(Br)c(Br)c1-2
- EC50 (L5178Y): 9 µg/mL (≈ 24.1 µM)

SMILES: CCCNC1=NC(=O)/C(=C2\CCNC(=O)c3[nH]c(-c4ccccc4)cc32)N1
- Ratio IC50 (Homo sapiens [1]): > 64
- IC50 [8]: > 1 µM

SMILES: COc1ccc2c3c([nH]c2c1)C(=O)NCc1ccccc1-3
- IC50 (MDA-MB-231): 4 µM
- IC50 (MCF7): 4 µM

SMILES: NC1=NC(=O)/C(=C2\CCNC(=O)c3[nH]c4ccc(F)cc4c32)N1
- IC50 [2]: 0.177 µM
- IC50 [3]: 0.55 µM

SMILES: O=C1Cc2c([nH]c3ccc(Br)cc23)-c2sccc2N1
- IC50 [2]: 0.12 µM

SMILES: O=c1[nH]c2ccccc2c2c1[nH]c1ccccc12
- IC50 (KB 3-1): 6.5 µM

SMILES: NC1=NC(=O)/C(=C2\CCNC(=O)c3[nH]c(Cl)c(Cl)c32)N1
- IC50 [2]: 0.062 µM
- IC50 [3]: 0.22 µM

SMILES: NC1=NC(=O)/C(=C2\CCNC(=O)c3[nH]c4ccccc4c32)N1
- IC50 (THP-1 [21]): 8.2 µM
- Ratio IC50 (Homo sapiens [1]): 29
- IC50 [2]: 0.177 µM
- IC50 [3]: 0.8 µM
- IC50 (THP-1 [22]): 3.5 µM

SMILES: O=C1NCCCc2ccccc2-c2c1[nH]c1ccccc21
- IC50 (KB 3-1): 8 µM

SMILES: NC1=NC(=O)/C(=C2\CCNC(=O)c3[nH]c(Br)c(Br)c32)N1
- IC50 [2]: 0.056 µM
- IC50 [3]: 0.53 µM

SMILES: COc1ccc(-c2cc3c([nH]2)C(=O)NCC/C3=C2/NC(N)=NC2=O)cc1OC
- Ratio IC50 (Homo sapiens [1]): 111

SMILES: NC1=NC(=O)/C(=C2\CCNC(=O)c3[nH]c4ccc(Br)cc4c32)N1
- IC50 [2]: 0.213 µM
- IC50 [3]: 1 µM

SMILES: O=C1NCc2ccccc2-c2c1[nH]c1ccccc21
- IC50 (MDA-MB-231): 0.6 µM
- IC50 (MCF7): 0.6 µM

SMILES: NCCCCOc1ccc2c(c1)-c1[nH]c3ccc(Br)cc3c1CC(=O)N2
- IC50 [23]: 0.04 µM

SMILES: NC1=NC(=O)/C(=C2\CCNC(=O)c3[nH]cc(Br)c32)N1
- IC50 [2]: 0.079 µM
- IC50 [3]: 1.5 µM

SMILES: Nc1ncc(C2=CCNC(=O)c3[nH]c(Br)c(Br)c32)[nH]1 [STEVENSINE]
- EC50 (L5178Y): 3.5 µg/mL (≈ 9.04 µM)

More lines, main results first:

- Ratio IC50 (Homo sapiens [1]): 32
SMILES: O=C1N=C(NCc2ccccc2)N/C1=C1/CCNC(=O)c2[nH]c(-c3ccccc3)cc21

- IC50 [4]: > 10 µM
- IC50 [2]: > 10 µM
- IC50 [5]: > 10 µM
- IC50 [3]: > 10 µM
- IC50 (CDK9/Cyclin T): 7.4 µM
- IC50 (Casein kinase I): > 10 µM
SMILES: O=C1Cc2c([nH]c3cc[n+]([O-])cc23)-c2ccccc2N1

- IC50 [2]: 0.075 µM
SMILES: O=C1NCC/C(=N\Nc2ccc(Cl)cn2)c2c1[nH]c1ccc(F)cc21

- IC50 [4]: > 10 µM
- IC50 [2]: 7.3 µM
- IC50 [5]: 6.2 µM
- IC50 (CDK9/Cyclin T): 0.24 µM
- IC50 (Casein kinase I): > 10 µM
SMILES: O=C1Cc2c([nH]c3cc[n+](Cc4ccccc4)cc23)-c2ccccc2N1.[Br-]

- Selectivity Index [6]: 1.4
- IC50 [2]: 6 µM
SMILES: O=C1Cc2c([nH]c3ccc(Br)cc23)-c2cccnc2N1

- IC50 (MOLM-13): 0.17 µM
SMILES: Cc1nnc2n1-c1ccccc1C(c1ccc(Cl)cc1)=C[C@@H]2CC(=O)Nc1ccc2c(c1)NC(=O)C2
- IC50 (LAPC4): 0.08 µM

- IC50 [2]: 10.4 µM
SMILES: O=C1NCC/C(=N\Nc2ccccn2)c2c1[nH]c(Br)c2Br

- IC50 [2]: 9.12 µM
- IC50 [3]: > 10 µM
SMILES: CCNC1=NC(=O)/C(=C2\CCNC(=O)c3[nH]c(Br)c(Br)c32)N1

- IC50 [2]: 0.012 µM
SMILES: O=C1NCC/C(=N\Nc2cccnc2)c2c1[nH]c1ccc(F)cc21

- GI50 (786-0): 1.7 µM
SMILES: O=C1Cc2c(-c3ccccc3)cc(-c3ccc(Cl)cc3)nc2-c2ccccc2N1

- IC50 [9]: > 100 µM
- IC50 [10]: > 100 µM
- IC50 [11]: > 10 µM
- IC50 [12]: > 10 µM
- IC50 [13]: 7 µM
SMILES: O=C1Cc2c([nH]c3ccc([N+](=O)[O-])cc23)-c2ccccc2N1 [ALSTERPAULLONE]

- inhibition [14]: 50%
- inhibition [15]: 50%
- inhibition [16]: 50%
- inhibition [17]: 50%
- inhibition [18]: 50%
- inhibition (Homo sapiens [19]): 50%
SMILES: CCOC(=O)c1cc2c([nH]1)-c1[nH]c3ccccc3c1C(=O)NC2

- IC50 [2]: 0.012 µM
SMILES: O=C1NCC/C(=N\Nc2cccnc2Cl)c2c1[nH]c1ccc(F)cc21

- GI50 (786-0): 5.5 µM
SMILES: O=C1Cc2c(-c3ccco3)cc(-c3ccccc3)nc2-c2ccccc2N1

- IC50 [2]: 7 µM
- IC50 (Protein kinase C (PKC)): 9 µM
- IC50 [3]: 4 µM
- IC50 (Casein kinase I): 4.5 µM
SMILES: O=C1NC(=O)/C(=C2\CCNC(=O)c3[nH]c(Br)cc32)N1 [SPONGIACIDIN D]

- IC50 (Integrin alpha-V/beta-3): 0.5 nM
SMILES: O=C(O)CC1CCC(=O)N(CC(=O)NCc2ccc(Nc3nc4ccccc4[nH]3)cc2)c2ccccc21 (centres undefined)

- Ratio IC50 (Homo sapiens [1]): 38
SMILES: CNC1=NC(=O)/C(=C2\CCNC(=O)c3[nH]c(-c4ccccc4)cc32)N1

- IC50 (MOLM-13): 0.12 µM
SMILES: Cc1nnc(C[C@H]2C=C(c3ccc(Cl)cc3)c3ccccc3-n3c(C)nnc32)o1
- IC50 (LAPC4): 0.04 µM

- inhibition [20]: 78%
SMILES: CCOC(=O)c1[nH]cc2c1-c1[nH]c3ccccc3c1C(=O)NC2

- IC50 (Integrin alpha-V/beta-3): 0.04 nM
SMILES: O=C(O)CC1CCC(=O)N(CC(=O)NC[C@H]2CC[C@H](Nc3nc4ccccc4[nH]3)CC2)c2ccccc21 (some centres undefined)

- GI50 (786-0): 6.6 µM
SMILES: O=C1Cc2c(-c3ccccc3)cc(-c3ccco3)nc2-c2ccccc2N1

- IC50 (MOLM-13): 0.12 µM
SMILES: CCOC(=O)C[C@H]1C=C(c2ccc(Cl)cc2)c2ccccc2-n2c(C)nnc21
- IC50 (LAPC4): 0.08 µM

- IC50 [5]: 0.5 µM
- IC50 [3]: 0.5 µM
SMILES: N#Cc1ccc2[nH]c3c(c2c1)CC(=O)Nc1cccnc1-3 [CAZPAULLONE]

- IC50 [23]: 0.022 µM
SMILES: O=C1Nc2ccccc2/C1=C1/Nc2ccccc2/C1=N\O

- IC50 (Integrin alpha-V/beta-3): 0.26 nM
SMILES: COc1ccc2c(c1)C(CC(=O)O)CCC(=O)N2CC(=O)NC[C@H]1CC[C@H](Nc2nc3ccccc3[nH]2)CC1 (some centres undefined)

- IC50 (Protein kinase C (PKC)): 22 µM
SMILES: O=C1NC(=O)/C(=C2\CCNC(=O)c3[nH]ccc32)N1 [SPONGIACIDIN C]

- Ratio IC50 (Homo sapiens [1]): 66
SMILES: NC1=NC(=O)/C(=C2\CCNC(=O)c3[nH]c(-c4ccccc4)cc32)N1

- IC50 [9]: > 1000 µM
- IC50 [10]: > 100 µM
- IC50 [11]: 38 µM
- IC50 [12]: > 100 µM
- IC50 [13]: > 1000 µM
SMILES: O=C1Cc2c([nH]c3ccc(Br)cc23)-c2ccccc2N1 [KENPAULLONE]
